Data taken from patent US20040197335A1, “Non-myeloablative tolerogenic treatment with tyrphostins” (priority 2003, published 2004).
Where two headings read alike, the source gives them in different places.

Tests used:
Assay type in all cases: cell-based
[1] = tested on: Human PBMC incubated with MHC-mismatched PBMC; experiment: One-way mixed lymphocyte reaction (primary MLR), [3H]TdR uptake; conditions: for % response (alloreactive relative response, cpm with/without tyrphostin x100): FIG. 2, response without tyrphostin = 100%; for IC50: Table 5, some values marked (mean), read-out: IC 50% (inhibition of Primary MLR); for cpm: no tyrphostin 10,734 cpm; for cpm ± SD: no tyrphostin 30,520 cpm
Procedure: Cell sources: Human peripheral blood mononuclear cells (PBMC) were obtained from healthy human donors after separation on Ficoll-Paque density gradient essentially as described in Boyum, A. Scand. J Lab. Invest. […] Reagents:
One-way mixed lymphocyte reaction (MLR assay): Responding cells derived from donor A (5×10^4) were cultured in round-bottom microwell plates with an equal number (5×10^4) of irradiated (6000 cGy) donor B PBMC with and without tyrphostins. […] During the last 18 hours of incubation, cultures were pulsed with 2 μCi of [^3H] TdR.
(§1) Harvesting and radioactivity determination: Harvesting was carried out by a multiple-sample cell harvester and radioactivity, expressed in counts per minutes (cpm), was determined in a liquid scintillation β-counter.
Human PBMC were incubated either with autologous or with MHC-mismatched PBMC in a one-way MLR assay, with and without various concentrations of tyrphostins, as is described hereinabove.
In this case, the alloreactive response without the tyrphostins was considered as 100% response. Percentage of response was calculated according to the following formula: b/a×100; where a=cpm in cultures without tyrphostin, b=cpm in cultures with tyrphostin.

[2] = tested on: Human PBMC stimulated with phytohemagglutinin (PHA); experiment: Primary mitogenic response assay (PHA), [3H]TdR uptake; conditions: Table 6, tyrphostin 20 μM; for inhibition at 20 µM: Homo sapiens, PBMC, 96 h; for cpm ± SD: PHA without tyrphostin 14,959±644, medium 155±37
Procedure: Mitogens: Phytohemagglutinin (PHA) and concanavalin A (Con-A) were dissolved in saline and diluted to their final concentration in culture medium. Anti-CD3 (OK3 stock solution 1 μg/ml) was diluted to 0.2 μg/ml final concentration in culture medium.
Responding PBMC cells (10^5) derived from donor A were cultured in flat-bottom microwell plates with and without tyrphostins, and with phytohemagglutinin (PHA) 1 μg/ml, or concanavalin A 18 μg/ml. […] During the last 18 hours of incubation, cultures were pulsed with 1 μCi of [^3H] TdR.
as §1

[3] = tested on: donor A anti-donor B-primed human PBMC stimulated with PHA; experiment: Mitogenic response (PHA) of alloantigen-primed PBMC; conditions: then removed, priming without tyrphostin = 100%
Procedure: (§2) PBMC from donor A (10×10^6) were stimulated with equal number of irradiated (6000 cGy) donor B PBMC, with and without tyrphostins, in a total volume of 20 ml culture medium supplemented with 10% heat inactivated human AB^+ serum (mixed lymphocyte culture, MLC). Cultures were placed vertically in 25 cm tissue culture flasks in a 5% CO2, humidified incubator at 37° C. After 10 days, cells were washed twice to remove the tyrphostin, and tested for their ability to respond in the MLR and the primary mitogenic response assay described hereinabove.
Cultures were incubated for 48 hours in a total volume of 0.2 ml culture medium supplemented with 10% heat-inactivated human AB^+ serum at 37° C. in a 5% CO2 humidified incubator, pulsed for 16-18 hours with 1 μCi [^3H]TdR/well, and then harvested.
as §1
(§3) […] After 10 days the tyrphostin was removed and the primed cells were tested for their ability to respond in a secondary MLR assay against the priming (donor B) alloantigens, in a primary MLR assay against third party unrelated alloantigens (donor C), and to non-specific stimulation in a mitogenic assay. […] Percentage of response was calculated according to the formula described above.

[4] = tested on: donor A anti-donor B-primed human PBMC vs third party unrelated donor C PBMC; experiment: Primary MLR of alloantigen-primed PBMC against third party unrelated donor C; conditions: then removed, priming without tyrphostin = 100%
Procedure: as §2
(§4) The alloreactivity of donor A anti-donor B-primed cells (5×10^4) was tested in a 6-day one-way primary MLR assay against third party unrelated donor C PBMC (10^5), or against donor A cells (background control). Cultures were placed in round-bottom microwell plates. On day 5, cultures were pulsed with 2 μCi [^3H] TdR/well for 16-18 hours and then harvested. […] After 48 hours at 37° C. in a 5% CO2 humidified incubator, cultures were pulsed with 2 μCi [^3H] TdR for another 16-18 hours and then harvested.
as §1, §3

[5] = tested on: donor A anti-donor B-primed human PBMC vs donor B PBMC; experiment: Secondary MLR of alloantigen-primed PBMC against priming donor B; conditions: then removed, priming without tyrphostin = 100%
Procedure: as §2, §4, §1, §3

[6] = Homo sapiens, PBMC, 144 h, Table 2, primary MLR, tyrphostin 10 μM
[7] = Homo sapiens, PBMC, 144 h, Table 2, primary MLR, tyrphostin 50 μM
[8] = Table 2, primary MLR, tyrphostin 10 μM
[9] = Table 2, primary MLR, tyrphostin 50 μM
[10] = Homo sapiens, PBMC, 144 h, Table 3, primary MLR, tyrphostin 25 μM
[11] = Homo sapiens, PBMC, 144 h, Table 3, primary MLR, tyrphostin 50 μM
[12] = Table 3, primary MLR, tyrphostin 25 μM
[13] = Table 3, primary MLR, tyrphostin 50 μM
[14] = primed 10 days with tyrphostin 5 μM
[15] = primed 10 days with tyrphostin 10 μM
[16] = primed 10 days with tyrphostin 20 μM
[17] = Table 2, primary MLR, tyrphostin 5 μM
[18] = primed 10 days with tyrphostin 40 μM
[19] = primed 10 days with tyrphostin 30 μM

## N#CC(=Cc1ccc(O)c(O)c1)C(=O)NCCCCc1ccccc1 [Tyr 5, 2-cyano-3-(3,4-dihydroxyphenyl)-N-(4-phenylbutyl)-acrylamide]
[1]; primary MLR, tyrphostin 10 μM
  % response (alloreactive relative response, cpm with/without tyrphostin x100): 32%
[1]; primary MLR, tyrphostin 50 μM
  % response (alloreactive relative response, cpm with/without tyrphostin x100): 13%
[1]; [6]
  inhibition at 10 µM: 40%
[1]; [7]
  inhibition at 50 µM: 70%
[1]; Homo sapiens, PBMC
  IC50: 34 µM
[1]; [8]
  cpm: 6,413 cpm
[1]; [9]
  cpm: 3,156 cpm

## 3-(3,5-dimethyl-H-pyrrol-2-yl-methylene)-2-oxo-2,3-dihydro-1H-indole-5-sulfonic acid dimethylamide [Tyr 16]
[1]; Table 4, primary MLR, tyrphostin 1 μM
  % Inhibition: 62%
[1]
  IC50: 4 µM

## COc1cc2ncnc(Nc3ccc(C(N)=O)cc3)c2cc1OC [Tyr 8, 4-(6,7-dimethoxyquinazoline-4-yl-amino)-benzamide]
[1]; [10]
  inhibition at 25 µM: 49%
[1]; [11]
  inhibition at 50 µM: 63%
[1]; Homo sapiens, PBMC
  IC50: 43 µM
[1]; [12]
  cpm ± SD: 12,452 cpm
[1]; [13]
  cpm ± SD: 11,293 cpm

## CC(C)(C)n1nc(-c2ccc(Cl)cc2)c2c(N)ncnc21 [Tyr 4, 4-amino-1-t-butyl-3-(p-chlorophenyl)pyrazolo[3,4-d]pyrimidine]
[2]; mitogenic response
  inhibition at 20 µM: 98%
[2]
  cpm ± SD: 230 ± 115 cpm
[3]; [14]
  % Response to PHA: 29%
[3]; [15]
  % Response to PHA: 120 ± 40%
[3]; [16]
  % Response to PHA: 40 ± 32^ %
[4]; [14]
  % Response to unrelated stimulator: 145%
[4]; [15]
  % Response to unrelated stimulator: 288 ± 122^ %
[4]; [16]
  % Response to unrelated stimulator: 204 ± 18%
[5]; [14]
  % Response to primary stimulator: 132%
[5]; [15]
  % Response to primary stimulator: 13 ± 4.5%
[5]; [16]
  % Response to primary stimulator: 6.5 ± 0.5%
[1]; [17]
  cpm: 3,316 cpm
[1]; [8]
  cpm: 580 cpm

## N#CC(=Cc1ccc(O)c(O)c1)C(=S)NCc1ccccc1 [Tyr 26, N-benzyl-2-cyano-3-(3,4-dihydroxyphenyl)-thioacrylamide]
[2]; mitogenic response
  inhibition at 20 µM: 70%
[2]
  cpm ± SD: 4,295 ± 221 cpm

## N#CC(=Cc1cc(O)c(O)c(CSCCCc2ccccc2)c1)C(=O)NCc1ccccc1 [Tyr 2, N-benzyl-2-cyano-3-[3,4-dihydroxy-5-(3-phenylpropylsulfanylmethyl)-phenyl]-acrylamide]
[3]; [16]
  % Response to PHA: 900%
[3]; [18]
  % Response to PHA: 254%
[4]; [16]
  % Response to unrelated stimulator: 257%
[4]; [18]
  % Response to unrelated stimulator: 138%
[5]; [16]
  % Response to primary stimulator: 280%
[5]; [18]
  % Response to primary stimulator: 15%
[1]; primary MLR, tyrphostin 10 μM
  % response (alloreactive relative response, cpm with/without tyrphostin x100): 73%
[1]; primary MLR, tyrphostin 50 μM
  % response (alloreactive relative response, cpm with/without tyrphostin x100): 0%
[1]; Homo sapiens, PBMC, 144 h, Table 2, primary MLR, tyrphostin 20 μM
  inhibition at 20 µM: 73%
[1]; Homo sapiens, PBMC, 144 h, Table 2, primary MLR, tyrphostin 40 μM
  inhibition at 40 µM: 95%
[1]; Homo sapiens, PBMC
  IC50: 22 µM
[1]; Table 2, primary MLR, tyrphostin 20 μM
  cpm: 2,863 cpm
[1]; Table 2, primary MLR, tyrphostin 40 μM
  cpm: 490 cpm

## CC(C)(C)c1cc(C=C(C#N)C(N)=S)cc(C(C)(C)C)c1O [Tyr 23, 2-cyano-3-(3,5-di-t-butyl-4-hydroxyphenyl)-thioacrylamide]
[2]; mitogenic response
  inhibition at 20 µM: 68%
[2]
  cpm ± SD: 4,831 ± 1026 cpm

## COc1cc2ncnc(Nc3ccc(O)cc3)c2cc1OC [Tyr 9, 4-(6,7-dimethoxyquinazoline-4-yl-amino)-phenol]
[2]; mitogenic response
  inhibition at 20 µM: 70%
[2]
  cpm ± SD: 4,582 ± 617 cpm
[1]; [10]
  inhibition at 25 µM: 95%
[1]; [11]
  inhibition at 50 µM: 99%
[1]; Homo sapiens, PBMC
  IC50: 26 µM
[1]; [12]
  cpm ± SD: 1,367 cpm
[1]; [13]
  cpm ± SD: 371 cpm

## CC(C)(C)n1nc(-c2cccs2)c2c(N)ncnc21 [Tyr 15, 4-amino-1-t-butyl-3-(2-thiophene)pyrazolo[3,4-d]pyrimidine]
[1]
  IC50: 7 µM

## N#CC(C#N)=Cc1ccc([N+](=O)[O-])c(O)c1 [Tyr 7, 2-(3-hydroxy-4-nitro-benzylidene)malononitrile]
[1]; [7]
  inhibition at 50 µM: 50%
[1]; Homo sapiens, PBMC, 144 h, Table 2, primary MLR, tyrphostin 100 μM
  inhibition at 100 µM: 95%
[1]; Homo sapiens, PBMC
  IC50: 36 µM
[1]; [9]
  cpm: 5,348 cpm
[1]; Table 2, primary MLR, tyrphostin 100 μM
  cpm: 512 cpm

## N#CC(=Cc1cc(O)c(O)c(CSCCc2ccccc2)c1)C(=O)NCCCCc1ccccc1 [Tyr 6, 2-cyano-3-(3,4-dihydroxy-5-phenethylsulfanylmethyl-phenyl)-N-(4-phenylbutyl)-acrylamide]
[2]; mitogenic response
  inhibition at 20 µM: 70%
[2]
  cpm ± SD: 4,662 ± 104 cpm
[3]; [15]
  % Response to PHA: 152%
[3]; [16]
  % Response to PHA: 62 ± 42^ %
[3]; [19]
  % Response to PHA: 20%
[4]; [15]
  % Response to unrelated stimulator: 250%
[4]; [16]
  % Response to unrelated stimulator: 220 ± 93%
[4]; [19]
  % Response to unrelated stimulator: 185%
[5]; [15]
  % Response to primary stimulator: 32%
[5]; [16]
  % Response to primary stimulator: 32 ± 0%
[5]; [19]
  % Response to primary stimulator: 46%
[1]; [6]
  inhibition at 10 µM: 59%
[1]; [7]
  inhibition at 50 µM: 99%
[1]; Homo sapiens, PBMC
  IC50: 23 µM
[1]; [8]
  cpm: 4,431 cpm
[1]; [9]
  cpm: 168 cpm

## COc1ccc(-c2nn(C(C)(C)C)c3ncnc(N)c23)cc1OC [Tyr 19, 4-amino-1-t-butyl-3-(3,4-dimethoxyphenyl)-pyrazolo[3,4-d]pyrimidine]
[2]; mitogenic response
  inhibition at 20 µM: 96%
[2]
  cpm ± SD: 553 ± 59 cpm
[1]; Homo sapiens, PBMC, 144 h, Table 4, primary MLR, tyrphostin 10 μM
  inhibition at 10 µM: 63%
[1]; Homo sapiens, PBMC, 144 h, Table 4, primary MLR, tyrphostin 20 μM
  inhibition at 20 µM: 80%
[1]; Homo sapiens, PBMC
  IC50: 3 µM

## N#CC(=Cc1c[nH]c2ccccc12)c1[nH]nc(N)c1C#N [Tyr 24, 3-amino-5-[1-cyano-2-(1H-indol-3-yl)vinyl]-1H-pyrazole-4-carbonitrile]
[2]; mitogenic response
  inhibition at 20 µM: 96%
[2]
  cpm ± SD: 533 ± 45 cpm

## Cc1ccc(-c2nn(C(C)(C)C)c3ncnc(N)c23)cc1 [Tyr 3, 4-amino-1-t-butyl-3-(p-toluyl)pyrazolo[3,4-d]pyrimidine]
[2]; mitogenic response
  inhibition at 20 µM: 98%
[2]
  cpm ± SD: 300 ± 24 cpm
[3]; [14]
  % Response to PHA: 26%
[3]; [15]
  % Response to PHA: 110 ± 35%
[3]; [16]
  % Response to PHA: 30 ± 28^ %
[4]; [14]
  % Response to unrelated stimulator: 55%
[4]; [15]
  % Response to unrelated stimulator: 206 ± 99%
[4]; [16]
  % Response to unrelated stimulator: 57 ± 44^ %
[5]; [14]
  % Response to primary stimulator: 65%
[5]; [15]
  % Response to primary stimulator: 24 ± 10%
[5]; [16]
  % Response to primary stimulator: 24 ± 18%
[1]; [17]
  cpm: 3,130 cpm
[1]; [8]
  cpm: 145 cpm

## N#CC(=Cc1cc(O)c(O)c(I)c1)C(=O)NCCCc1ccccc1 [Tyr 32, 2-cyano-3-(3,4-dihydroxy-5-iodophenyl)-N-(4-phenylpropyl)-acrylamide]
[2]; mitogenic response
  % Inhibition: 58%
[2]
  cpm ± SD: 6,303 ± 1205 cpm
